Reference: US9018192B2, “Unitary pharmaceutical dosage form” (Bristol-Myers Squibb & Gilead Sciences, LLC, priority 2005, dated 2015)
Structures can show the parent of a compound that is named as a salt.

Assay: chemical stability of tenofovir DF in the dosage form (stability studies)
Format: physicochemical

CC(C)OC(=O)OCOP(=O)(CO[C@H](C)Cn1cnc2c(N)ncnc21)OCOC(=O)OC(C)C [tenofovir DF, tenofovir disoproxil fumarate]
compatibility of efavirenz formulation with tenofovir DF (attributed to the surfactant sodium lauryl sulfate in the efavirenz portion): unexpectedly incompatible
stability of tenofovir DF in preparation (increased proportion of excipients, wet granulation of the three API combination): highly unstable
stability of tenofovir DF in combination tablet (three drugs in unitary, essentially homogeneous composition manufactured by wet granulation, stability studies): highly unstable and rapidly degraded
